Reference: ChEMBL document CHEMBL3045978, “Sensitivity of Botrytis cinerea to chitosan and acibenzolar-S-methyl” (Pest Manag Sci, 2010)
Values after ≈ are worked out from the molar mass of the structure shown. Active and inactive are the calls of the source. The calls are words filed in the database; no cut-off is given here.

What was measured:
Botrytis cinerea [1] = experiment: Growth inhibition of Botryotinia fuckeliana at 5 mg/ml after 4 days relative to control; format: functional; details: 96 h, read-out: GI
Botrytis cinerea [2] = experiment: Antifungal activity against Botryotinia fuckeliana infected grape assessed as decrease in lesion diameter at 3 mg/ml applied by dipping 24 hr prior to infection measured after 3 days at 24 degC relative to untreated-control; format: functional, organism-based
Botrytis cinerea [3] = experiment: Antifungal activity against Botryotinia fuckeliana infected grape assessed as decrease in lesion diameter at 1 to 3 mg/ml applied by dipping 24 hr prior to infection measured after 5 to 7 days at 4 degC relative to untreated-control; format: functional, organism-based
Botrytis cinerea [4] = experiment: Antifungal activity against Botryotinia fuckeliana infected grape assessed as decrease in lesion diameter at 3 mg/ml applied by dipping 24 hr prior to infection measured after 4 days at 4 degC relative to untreated-control; format: functional, organism-based
Botrytis cinerea [5] = experiment: Antifungal activity against Botryotinia fuckeliana infected in grape assessed as lesion diameter at 1 mg/ml applied by dipping 24 hr prior to infection measured after 4 days at 24 degC (reference value: 30.56 mm); format: functional
Botrytis cinerea [6] = experiment: Growth inhibition of Botryotinia fuckeliana at 1 mg/ml after 4 days relative to control; format: functional; details: 96 h, read-out: GI
Botrytis cinerea [7] = experiment: Antifungal activity against Botryotinia fuckeliana infected grape assessed as decrease in lesion diameter at 3 mg/ml applied by dipping 24 hr prior to infection measured after 3 days at 4 degC relative to untreated-control; format: functional, organism-based
Botrytis cinerea [8] = experiment: Antifungal activity against Botryotinia fuckeliana assessed as mycelial growth at 2 mg/ml after 4 days (reference value: 85 mm); format: functional
Botrytis cinerea [9] = experiment: Antifungal activity against Botryotinia fuckeliana infected grape assessed as lesion diameter at 3 mg/ml applied by dipping 24 hr prior to infection measured after 4 days at 24 degC (reference value: 30.56 mm); format: functional
Botrytis cinerea [10] = experiment: Growth inhibition of Botryotinia fuckeliana at 0.5 mg/ml after 4 days relative to control; format: functional; details: 96 h, read-out: GI
Botrytis cinerea [11] = experiment: Antifungal activity against Botryotinia fuckeliana assessed as mycelial growth after 4 days; format: functional, organism-based; details: 96 h
Botrytis cinerea [12] = experiment: Growth inhibition of Botryotinia fuckeliana at 4 mg/ml after 4 days relative to control; format: functional; details: 96 h, read-out: GI
Botrytis cinerea [13] = experiment: Antifungal activity against Botryotinia fuckeliana infected grape assessed as decrease in lesion diameter at 1 mg/ml applied by dipping 24 hr prior to infection measured after 4 days at 4 degC relative to untreated-control; format: functional, organism-based
Botrytis cinerea [14] = experiment: Antifungal activity against Botryotinia fuckeliana assessed as mycelial growth at 3 mg/ml after 4 days (reference value: 85 mm); format: functional

CSC(=O)c1cccc2nnsc12 [ACIBENZOLAR-S-METHYL]
inhibition of growth at 5000 µg/mL (Botrytis cinerea [1]): 66.2%
Activity (Botrytis cinerea [2]): Active
Activity (Botrytis cinerea [3]): Active
Activity (Botrytis cinerea [4]): Active
Activity (Botrytis cinerea [5]): 17.94 mm
inhibition of growth at 1000 µg/mL (Botrytis cinerea [6]): 23.1%
Activity (Botrytis cinerea [7]): Active
Activity (Botrytis cinerea [8]): 54.26 mm
Activity (Botrytis cinerea [9]): 16.99 mm
inhibition of growth at 500 µg/mL (Botrytis cinerea [10]): 16.3%
EC50 (Botrytis cinerea [11]): 3440 µg/mL (≈ 16.4 mM)
inhibition of growth at 4000 µg/mL (Botrytis cinerea [12]): 55.6%
Activity (Botrytis cinerea [13]): Active
Activity (Botrytis cinerea [14]): 44.72 mm
